The values below come from PMC11672637, “7-O-Carboxylic Acid-Substituted 3-O-Alkyl Difluoroquercetin; An Aztreonam-Potentiating Agent Against Carbapenemase-Producing Pseudomonas aeruginosa Through Simultaneous Inhibition of Metallo-β-Lactamase and Efflux Pump” (Antibiotics, 2024).

Each structure is given as a SMILES string. Values after ≈ are worked out from the molar mass of the structure shown. Where two headings read alike, the source gives them in different places.

Common to all, as to assay type: cell-based, P. aeruginosa
For one test, the system named is All CPPA (n = 26). Description: MIC distribution over clinical isolates. To be noted: Pseudomonas aeruginosa.
Another test concerns PA-040, blaNDM. Description: MIC / checkerboard with ATM. Further details: key to Susceptibility category: S: susceptible; I: intermediate; R: resistant. The conditions noted are these: for MIC: Pseudomonas aeruginosa.
Test [1] concerns ATM-Resistant CPPA (n = 15). Description: MIC distribution over clinical isolates. The conditions noted are these: Pseudomonas aeruginosa.
In the next test the test system is PA-041, blaNDM. Description: MIC / checkerboard with ATM. Further details: key to Susceptibility category: S: susceptible; I: intermediate; R: resistant. The conditions noted are these: for MIC: Pseudomonas aeruginosa.
In a further test the test system is PA-025, blaNDM. Description: MIC / checkerboard with ATM. Further details: key to Susceptibility category: S: susceptible; I: intermediate; R: resistant. To be noted: PA-025.
A further test concerns PA-035, blaGES. As to the kind of experiment: MIC / checkerboard with ATM. Further details: key to Susceptibility category: S: susceptible; I: intermediate; R: resistant. The conditions noted are these: for MIC: Pseudomonas aeruginosa.
[2] abbreviates: read-out: MIC50 of ATM, 5 at 0 mg/L.
The mark [3] stands for this setting: read-out: MIC90 of ATM, 5 at 0 mg/L.

The MIC is the lowest concentration that inhibits growth of the organism. Regarding `C[C@H]1[C@H](NC(=O)/C(=N\OC(C)(C)C(=O)O)c2csc(N)n2)C(=O)N1S(=O)(=O)O` [ATM, aztreonam], the MIC50 (in the test with All CPPA (n = 26) (setting [2]); in test [1] (setting [2])) was 16 µg/mL (≈ 36.7 µM) throughout. Further, the MIC90 in the test with All CPPA (n = 26) (setting [3]) is 32 µg/mL (≈ 73.5 µM); in test [1] (setting [3]) it was 64 µg/mL (≈ 147 µM). Besides, the “Susceptibility to ATM” value in the test with PA-040, blaNDM (PA-040, ATM alone) was “S (S (sensitive, MIC ≤ 8 mg/L))”; with PA-041, blaNDM (PA-041, ATM alone), “S (S (sensitive, MIC ≤ 8 mg/L))”; in the test with PA-025, blaNDM (ATM alone) it was “I (I (intermediate, MIC = 16 mg/L))”; with PA-035, blaGES (PA-035, ATM alone), “S (S (sensitive, MIC ≤ 8 mg/L))”. Besides, the Susceptibility category entry in the test with PA-040, blaNDM (PA-040, Table S2) is listed as “S”; in the test on PA-041, blaNDM (PA-041, Table S2) it was “S”; in the test with PA-025, blaNDM (Table S2), “I”; with PA-035, blaGES (PA-035, Table S2), “S”. For the same compound, the MIC with PA-040, blaNDM (PA-040, Table S2, read-out: MIC value) worked out at 4 µg/mL; in the test with PA-040, blaNDM (read-out: MIC of ATM, PA-040, ATM alone (5 at 0 mg/L)), 4 µg/mL; in the test with PA-041, blaNDM (PA-041, Table S2, read-out: MIC value), 4 µg/mL; in the test with PA-041, blaNDM (read-out: MIC of ATM, PA-041, ATM alone (5 at 0 mg/L)), 4 µg/mL; in the test on PA-035, blaGES (PA-035, Table S2, read-out: MIC value), 8 µg/mL; in the test on PA-035, blaGES (read-out: MIC of ATM, PA-035, ATM alone (5 at 0 mg/L)), 8 µg/mL.
